Values quoted from earlier work, collected in patent US20240082217A1, “PROCESS FOR OBTAINING A PURIFIED PS[…] SOLUTION” (PSILO SCIENTIFIC LTD, priority 2020, published 2024).

Settings: stated as a property of the alkaloid, freebase form; no measurement described

**Q.** With `CN(C)CCc1c[nH]c2cccc(O)c12` [psilocin] as the molecule, how does the “isoelectric point (pH)” value read?
**A.** Its value is 8.47±0.25 pH.
